The results in this text go back to US11414413B2, “Heterocyclic compound as JAK inhibitor, and salts and therapeutic use thereof” (Suzhou Longbiotech Pharmaceuticals Co., Ltd., priority 2016, dated 2022).

Holding throughout (type): biochemical
One assay deals with JAK1 (Homo sapiens (Human), UniProt P23458). Kind of assay: Inhibition of JAK1, luminescence kinase assay (ADP-Glo). To be noted: purified recombinant JAK1. As to the method: (§1) The study of the effect of compounds on the activity of purified recombinant JAK was performed by studying the inhibitory activity of the compounds on JAK from the enzymatic level. The experimental principle is to use a luminescence kinase assay to detect the ADP content produced by the reaction of JAK with the substrate Poly (4:1 Glu, Tyr) peptide: after ADP is converted to ATP, ATP can act as a substrate for the Ultra-Glo luciferase catalytic reaction, producing an optical signal. The luminescence signal is positively correlated with the amount of ADP and kinase activity. Therefore, the inhibitory effect of the compounds on the recombinant JAK was determined by observing the luminescence signal produced by the reaction of JAK and the substrate, and was expressed by IC50.
(§2) Experimental method: 10 different concentrations of compounds were incubated with JAK1, JAK2 and JAK3, respectively, for 60 minutes at 37° C. The substrate and ATP were then added, mixed, and reacted at 37° C. for 50 minutes. 25 μl of ADP-Glo™ was added and mixed for 2 minutes. The reaction was carried out for 50 minutes at room temperature. Further, 50 μl of the detection reagent was added and mixed for 2 minutes, and incubated at room temperature for 50 minutes, and detected by a chemiluminometer.

Another assay has as its target JAK2 (Homo sapiens (Human), UniProt O60674). Kind of assay: Inhibition of JAK2, luminescence kinase assay (ADP-Glo). To be noted: purified recombinant JAK2. As to the method:
as §1, §2

A further assay addresses JAK3 (Homo sapiens (Human), UniProt P52333). As to the kind of experiment: Inhibition of JAK3, luminescence kinase assay (ADP-Glo). To be noted: purified recombinant JAK3. As to the method: as §1, §2
Background: In ADP-Glo the light output rises with the ADP produced.

Sequence of JAK2 (O60674 whole entry): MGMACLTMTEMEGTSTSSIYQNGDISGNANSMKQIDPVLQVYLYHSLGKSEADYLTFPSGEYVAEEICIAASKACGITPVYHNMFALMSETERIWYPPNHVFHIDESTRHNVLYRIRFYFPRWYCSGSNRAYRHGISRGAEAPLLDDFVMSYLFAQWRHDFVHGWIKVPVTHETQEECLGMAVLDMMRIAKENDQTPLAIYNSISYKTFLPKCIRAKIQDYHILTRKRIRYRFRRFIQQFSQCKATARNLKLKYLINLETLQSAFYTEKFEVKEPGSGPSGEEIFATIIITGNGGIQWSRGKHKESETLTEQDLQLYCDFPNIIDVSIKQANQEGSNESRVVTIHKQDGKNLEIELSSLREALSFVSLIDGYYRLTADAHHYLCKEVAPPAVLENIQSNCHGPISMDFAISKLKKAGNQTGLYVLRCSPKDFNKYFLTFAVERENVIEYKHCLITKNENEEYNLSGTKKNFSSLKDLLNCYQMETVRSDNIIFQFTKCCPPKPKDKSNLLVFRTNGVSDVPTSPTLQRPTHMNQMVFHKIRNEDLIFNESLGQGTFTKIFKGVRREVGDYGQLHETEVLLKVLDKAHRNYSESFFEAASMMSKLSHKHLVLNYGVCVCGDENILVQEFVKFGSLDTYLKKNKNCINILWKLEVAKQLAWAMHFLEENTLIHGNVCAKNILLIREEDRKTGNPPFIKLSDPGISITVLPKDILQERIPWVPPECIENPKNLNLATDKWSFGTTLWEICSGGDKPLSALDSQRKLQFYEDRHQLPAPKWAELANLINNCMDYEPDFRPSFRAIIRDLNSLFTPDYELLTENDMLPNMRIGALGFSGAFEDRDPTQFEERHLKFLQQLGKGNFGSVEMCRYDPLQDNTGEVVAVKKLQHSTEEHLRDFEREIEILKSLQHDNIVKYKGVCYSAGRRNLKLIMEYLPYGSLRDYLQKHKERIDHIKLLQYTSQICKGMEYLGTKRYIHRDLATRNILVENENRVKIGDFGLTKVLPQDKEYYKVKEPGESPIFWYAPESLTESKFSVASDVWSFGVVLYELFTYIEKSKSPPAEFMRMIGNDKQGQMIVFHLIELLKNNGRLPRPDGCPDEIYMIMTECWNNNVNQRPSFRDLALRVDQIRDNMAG
Sequence of JAK3 (P52333 whole entry): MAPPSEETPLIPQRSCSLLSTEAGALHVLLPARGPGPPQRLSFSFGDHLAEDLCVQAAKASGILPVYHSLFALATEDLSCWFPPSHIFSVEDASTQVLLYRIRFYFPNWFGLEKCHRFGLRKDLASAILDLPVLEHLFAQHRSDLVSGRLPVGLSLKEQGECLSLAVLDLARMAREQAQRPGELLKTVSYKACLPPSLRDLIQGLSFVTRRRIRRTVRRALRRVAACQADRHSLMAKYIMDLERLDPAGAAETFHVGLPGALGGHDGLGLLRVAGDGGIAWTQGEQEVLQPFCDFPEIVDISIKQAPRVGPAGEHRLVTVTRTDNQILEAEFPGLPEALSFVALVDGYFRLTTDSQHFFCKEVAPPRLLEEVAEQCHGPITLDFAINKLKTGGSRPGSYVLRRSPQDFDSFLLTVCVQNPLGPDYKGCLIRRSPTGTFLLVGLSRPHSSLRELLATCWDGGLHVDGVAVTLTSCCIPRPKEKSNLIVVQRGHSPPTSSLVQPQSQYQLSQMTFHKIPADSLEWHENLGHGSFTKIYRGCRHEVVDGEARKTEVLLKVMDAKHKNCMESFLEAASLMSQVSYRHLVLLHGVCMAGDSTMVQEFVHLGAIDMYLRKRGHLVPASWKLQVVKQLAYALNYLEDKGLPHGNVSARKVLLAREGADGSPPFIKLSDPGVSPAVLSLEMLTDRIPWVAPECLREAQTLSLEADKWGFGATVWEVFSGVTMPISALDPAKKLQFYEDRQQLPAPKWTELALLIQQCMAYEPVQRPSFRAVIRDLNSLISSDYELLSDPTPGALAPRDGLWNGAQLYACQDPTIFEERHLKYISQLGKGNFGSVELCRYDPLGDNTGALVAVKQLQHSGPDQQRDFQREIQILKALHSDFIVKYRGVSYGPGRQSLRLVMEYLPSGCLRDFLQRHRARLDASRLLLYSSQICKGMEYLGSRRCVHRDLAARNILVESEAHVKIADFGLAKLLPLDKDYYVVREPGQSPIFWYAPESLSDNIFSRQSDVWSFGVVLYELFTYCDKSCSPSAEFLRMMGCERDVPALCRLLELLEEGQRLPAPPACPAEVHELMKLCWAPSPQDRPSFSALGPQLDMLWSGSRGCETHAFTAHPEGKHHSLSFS
Sequence of JAK1 (P23458 whole entry): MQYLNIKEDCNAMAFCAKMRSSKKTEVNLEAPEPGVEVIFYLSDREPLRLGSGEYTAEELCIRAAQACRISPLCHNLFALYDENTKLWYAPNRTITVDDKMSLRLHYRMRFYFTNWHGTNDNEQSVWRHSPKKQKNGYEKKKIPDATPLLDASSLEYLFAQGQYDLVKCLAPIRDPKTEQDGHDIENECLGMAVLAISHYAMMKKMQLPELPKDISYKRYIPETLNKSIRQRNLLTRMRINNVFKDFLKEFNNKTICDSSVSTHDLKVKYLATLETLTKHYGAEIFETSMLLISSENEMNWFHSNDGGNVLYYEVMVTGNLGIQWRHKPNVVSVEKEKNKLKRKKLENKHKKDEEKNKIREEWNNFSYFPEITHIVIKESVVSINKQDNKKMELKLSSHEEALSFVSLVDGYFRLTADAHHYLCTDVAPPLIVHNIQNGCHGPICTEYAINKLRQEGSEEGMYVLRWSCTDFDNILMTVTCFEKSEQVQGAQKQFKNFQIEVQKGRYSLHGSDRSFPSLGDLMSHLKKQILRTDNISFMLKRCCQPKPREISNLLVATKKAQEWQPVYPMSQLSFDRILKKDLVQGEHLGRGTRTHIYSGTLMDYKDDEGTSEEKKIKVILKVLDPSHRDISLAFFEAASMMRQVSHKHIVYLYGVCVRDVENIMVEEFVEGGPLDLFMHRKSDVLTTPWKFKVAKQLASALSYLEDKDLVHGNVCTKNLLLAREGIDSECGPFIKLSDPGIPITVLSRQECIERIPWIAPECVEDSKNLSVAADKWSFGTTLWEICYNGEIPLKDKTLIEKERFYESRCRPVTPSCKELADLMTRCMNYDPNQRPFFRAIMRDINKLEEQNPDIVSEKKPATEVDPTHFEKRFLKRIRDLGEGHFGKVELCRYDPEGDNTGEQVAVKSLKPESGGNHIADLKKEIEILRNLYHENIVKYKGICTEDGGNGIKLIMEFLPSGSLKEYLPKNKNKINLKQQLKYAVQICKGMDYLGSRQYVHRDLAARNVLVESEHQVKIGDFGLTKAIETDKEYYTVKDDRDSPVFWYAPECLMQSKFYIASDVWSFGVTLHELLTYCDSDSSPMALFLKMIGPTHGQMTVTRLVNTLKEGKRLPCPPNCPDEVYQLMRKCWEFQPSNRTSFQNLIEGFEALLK

As to `CS(=O)(=O)N1CC(CC(=O)NCC(F)(F)F)(n2cc(-c3ccnc4[nH]ccc34)cn2)C1` [Example 15, 2-(3-(4-(1H-pyrrolo[2,3-b]pyridin-4-yl)-1H-pyrazol-1-yl)-1-(methylsulfonyl)azetidin-3-yl)-N-(2,2,2-trifluoroethyl)acetamide], the results for the half-maximal inhibitory concentration (IC50) on JAK1, at JAK2 and on JAK3 were under 20 nM, 20 to 50 nM and under 20 nM, respectively.
For `NC(=O)CC1(n2cc(-c3c[nH]c4ncccc34)cn2)CCS(=O)(=O)CC1` [Example 18, 2-(4-(4-(1H-pyrrolo[2,3-b]pyridin-3-yl)-1H-pyrazol-1-yl)-1,1-dioxotetrahydro-2H-thiopyran-4-yl)acetamide], the figures for the IC50 at JAK1, on JAK2 and on JAK3 were under 20 nM, over 50 nM and under 20 nM, respectively.
On to `O=C(CC1(n2cc(-c3c[nH]c4ncccc34)cn2)CCS(=O)(=O)CC1)NCC(F)(F)F` [Example 19, 2-(4-(4-(1H-pyrrolo[2,3-b]pyridin-3-yl)-1H-pyrazol-1-yl)-1,1-dioxotetrahydro-2H-thiopyran-4-yl)-N-(2,2,2-trifluoroethyl)acetamide], for which the IC50 (usually the concentration that inhibits the measured activity by half) was 20 to 50 nM at JAK1, over 50 nM on JAK2 and over 50 nM at JAK3.
For `O=C(CC1(n2cc(-c3ncnc4[nH]ccc34)cn2)CCS(=O)(=O)CC1)NCC(F)(F)F` [Example 20, 2-(4-(4-(7H-pyrrolo[2,3-d]pyrimidin-4-yl)-1H-pyrazol-1-yl)-1,1-dioxotetrahydro-2H-thiopyran-4-yl)-N-(2,2,2-trifluoroethyl)acetamide], the results for the IC50 on JAK1, on JAK2 and on JAK3 were 20 to 50 nM, over 50 nM and over 50 nM, respectively.
In the case of `O=C(CC1(n2cc(-c3ccnc4[nH]ccc34)cn2)CCS(=O)(=O)CC1)NCC(F)(F)F` [Example 21, 2-(4-(4-(7H-pyrrolo[2,3-b]pyridin-4-yl)-1H-pyrazol-1-yl)-1,1-dioxotetrahydro-2H-thiopyran-4-yl)-N-(2,2,2-trifluoroethyl)acetamide], the IC50 on JAK1 was 20 to 50 nM; on JAK2, over 50 nM; at JAK3 it was over 50 nM.
As to `CS(=O)(=O)N1CCC(CC(=O)NCC(F)(F)F)(n2cc(-c3c[nH]c4ncccc34)cn2)CC1` [Example 22, 2-(4-(4-(7H-pyrrolo[2,3-b]pyridin-3-yl)-1H-pyrazol-1-yl)-1-(methylsulfonyl)piperidin-4-yl)-N-(2,2,2-trifluoroethyl)acetamide], the IC50 at JAK1, at JAK2 and at JAK3 was over 50 nM throughout.
`CS(=O)(=O)N1CCC(CC(=O)NCC(F)(F)F)(n2cc(-c3ncnc4[nH]ccc34)cn2)CC1` [Example 23, 2-(4-(4-(7H-pyrrolo[2,3-b]pyrimidin-4-yl)-1H-pyrazol-1-yl)-1-(methylsulfonyl)piperidin-4-yl)-N-(2,2,2-trifluoroethyl)acetamide]: the IC50 on JAK1 was 20 to 50 nM; on JAK2 it was over 50 nM; on JAK3 it was over 50 nM.
As to `CS(=O)(=O)N1CCC(CC(=O)NCC(F)(F)F)(n2cc(-c3ccnc4[nH]ccc34)cn2)CC1` [Example 24, 2-(4-(4-(7H-pyrrolo[2,3-b]pyridin-4-yl)-1H-pyrazol-1-yl)-1-(methylsulfonyl)piperidin-4-yl)-N-(2,2,2-trifluoroethyl)acetamide], the IC50 on JAK1 is 20 to 50 nM; at JAK2 it was over 50 nM; at JAK3 it was over 50 nM.
In the case of `O=C(CC1(n2cc(-c3ccnc4[nH]ccc34)cn2)CCCC1)NCC(F)(F)F` [Example 27, 2-(1-(4-(1H-pyrrolo[2,3-b]pyridin-4-yl)-1H-pyrazol-1-yl)cyclopentyl)-N-(2,2,2-trifluoroethyl) acetamide], the half-maximal inhibitory concentration (IC50) was 20 to 50 nM on JAK1, over 50 nM on JAK2 and over 50 nM on JAK3.
Regarding `CC(C)(CC(=O)NCC(F)(F)F)n1cc(-c2c[nH]c3ncccc23)cn1` [Example 28, 3-(4-(1H-pyrrolo[2,3-b]pyridin-3-yl)-1H-pyrazol-1-yl)-3-methyl-N-(2,2,2-trifluoroethyl)butanamide], the results for the IC50 at JAK1, at JAK2 and on JAK3 were over 50 nM, 20 to 50 nM and over 50 nM, respectively.
For `CC(C)(CC(=O)NCC(F)(F)F)n1cc(-c2ncnc3[nH]ccc23)cn1` [Example 29], the IC50 on JAK1 is over 50 nM; on JAK2 it was 20 to 50 nM; at JAK3 it was under 20 nM.
In the case of `O=C(NCC(F)(F)F)C1(Nc2ccnc(-c3c[nH]c4ncccc34)n2)CN(S(=O)(=O)C2CC2)C1` [Example 33, 3-((2-(1H-pyrrolo[2,3-b]pyridin-3-yl)pyrimidin-4-yl)amino)-1-(cyclopropylsulfonyl)-N-(2,2,2-trifluoroethyl)azetidin-3-carboxamide], the IC50 is over 50 nM at JAK1, over 50 nM at JAK2 and 20 to 50 nM at JAK3.
Turning to `O=C(NCC(F)(F)F)C1(Nc2nc(-c3c[nH]c4ncccc34)ncc2F)CN(S(=O)(=O)C2CC2)C1` [Example 36], the IC50 was over 50 nM at JAK1, over 50 nM on JAK2 and 20 to 50 nM at JAK3.
Consider `CS(=O)(=O)N1CCC(Nc2ccnc(-c3c[nH]c4ncccc34)n2)(C(=O)NCC(F)(F)F)CC1` [Example 37, 4-((2-(1H-pyrrolo[2,3-b]pyridin-3-yl)pyrimidin-4-yl)amino)-1-(methylsulfonyl)-N-(2,2,2-trifluoroethyl)piperidin-4-carboxamide], for which the IC50 was over 50 nM on JAK1, over 50 nM at JAK2 and 20 to 50 nM on JAK3.
With `O=C(NCC(F)(F)F)C1(Nc2ccnc(-c3c[nH]c4ncccc34)n2)CCN(S(=O)(=O)C2CC2)CC1` [Example 39, 4-((2-(1H-pyrrolo[2,3-b]pyridin-3-yl)pyrimidin-4-yl)amino)-1-(cyclopropylsulfonyl)-N-(2,2,2-trifluoroethyl)piperidin-4-carboxamide], the IC50 on JAK1 is over 50 nM; on JAK2 it was over 50 nM; on JAK3, 20 to 50 nM.
As to `O=C(NCC(F)(F)F)C1(Nc2nc(-c3c[nH]c4ncccc34)ncc2F)CCN(S(=O)(=O)C2CC2)CC1` [Example 42, 4-((5-fluoro-2-(1H-pyrrolo[2,3-b]pyridin-3-yl)pyrimidin-4-yl)amino)-1-(cyclopropylsulfonyl)-N-(2,2,2-trifluoroethyl)piperidin-4-carboxamide], the IC50 on JAK1 was over 50 nM; at JAK2 it was 20 to 50 nM; on JAK3, 20 to 50 nM.
On to `CCS(=O)(=O)N1CC(C#N)(Nc2ccnc(-c3c[nH]c4ncccc34)n2)C1` [Example 45, 3-((2-(1H-pyrrolo[2,3-b]pyridin-3-yl)pyrimidin-4-yl)amino)-1-(ethylsulfonyl) azetidine-3-carbonitrile], for which the results for the half-inhibitory concentration (IC50) on JAK1, on JAK2 and on JAK3 were over 50 nM, 20 to 50 nM and 20 to 50 nM, respectively.
Consider `CCS(=O)(=O)N1CC(C#N)(Nc2ccnc(-c3ncnc4[nH]ccc34)n2)C1` [Example 46, 3-((2-(7H-pyrrolo[2,3-d]pyrimidin-4-yl)pyrimidin-4-yl)amino)-1-(ethylsulfonyl)azetidine-3-carbonitrile], for which the IC50 at JAK1, at JAK2 and on JAK3 was over 50 nM throughout.
As for `CS(=O)(=O)N1CC(C#N)(Nc2ccnc(-c3c[nH]c4ncccc34)n2)C1` [Example 48, 3-((2-(1H-pyrrolo[2,3-b]pyridin-3-yl)pyrimidin-4-yl)amino)-1-(methylsulfonyl) azetidine-3-carbonitrile], the IC50 on JAK1, on JAK2 and at JAK3 was over 50 nM in each case.
Consider `CS(=O)(=O)N1CC(C#N)(Nc2ccnc(-c3ncnc4[nH]ccc34)n2)C1` [Example 49, 3-((2-(7H-pyrrolo[2,3-d]pyrimidin-4-yl)pyrimidin-4-yl)amino)-1-(methylsulfonyl) azetidine-3-carbonitrile], for which the figures for the IC50 on JAK1, at JAK2 and on JAK3 were over 50 nM, over 50 nM and 20 to 50 nM, respectively.
As to `CS(=O)(=O)N1CC(C#N)(Nc2ccnc(-c3ccnc4[nH]ccc34)n2)C1` [Example 50, 3-((2-(1H-pyrrolo[2,3-b]pyridin-4-yl)pyrimidin-4-yl)amino)-1-(methylsulfonyl) azetidine-3-carbonitrile], the IC50 at JAK1, on JAK2 and on JAK3 was over 50 nM in each case.
Turning to `N#CC1(Nc2ccnc(-c3c[nH]c4ncccc34)n2)CCS(=O)(=O)CC1` [Example 51, 4-((2-(1H-pyrrolo[2,3-b]pyridin-3-yl)pyrimidin-4-yl)amino)tetrahydro-2H-thiopyran-4-carbonitrile 1,1-dioxide], the values for the IC50 on JAK1, at JAK2 and at JAK3 were over 50 nM, over 50 nM and 20 to 50 nM, respectively.
Regarding `N#CC1(Nc2ccnc(-c3ncnc4[nH]ccc34)n2)CCS(=O)(=O)CC1` [Example 52, 4-((2-(7H-pyrrolo[2,3-d]pyrimidin-4-yl)pyrimidin-4-yl)amino)tetrahydro-2H-thiopyran-4-carbonitrile 1,1-dioxide], the concentration for half-maximal inhibition (IC50) at JAK1, on JAK2 and at JAK3 was over 50 nM in each case.
In the case of `N#CC1(Nc2ccnc(-c3ccnc4[nH]ccc34)n2)CCS(=O)(=O)CC1` [Example 53, 4-((2-(1H-pyrrolo[2,3-b]pyridin-4-yl)pyrimidin-4-yl)amino)tetrahydro-2H-thiopyran-4-carbo nitrile 1,1-dioxide], the concentration for half-maximal inhibition (IC50) at JAK1 was over 50 nM; on JAK2, over 50 nM; on JAK3, 20 to 50 nM.
